From US9902736B2, “1-oxo/acylation-14-acylated oridonin derivative, preparation method therefor and application thereof” (HANGZHOU BENSHENG PHARMACEUTICAL CO., LTD., priority 2012, dated 2018)
≈ marks a conversion by molar mass, not a printed value.

Experiments:
[1] = test system: K562/ADR; assay: Leukemia cell growth inhibition, MTT, 72 h; type: cell-based; settings: Homo sapiens
How it was run: (§1)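 MTT read-out of viable cell concentration after 72 hours of exposure at 37° C under 5% CO2. Compounds were dosed at several concentrations one day after plating 6000 cells per well.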

[2] = test system: Kasumi-1; assay: Leukemia cell growth inhibition, MTT, 72 h; type: cell-based; settings: Homo sapiens
How it was run: as §1

[3] = test system: H9; assay: Leukemia cell growth inhibition, MTT, 72 h; type: cell-based, human; settings: Homo sapiens, H9; 72 h, MTT
How it was run: as §1

[4] = test system: Jurkat; assay: Leukemia cell growth inhibition, MTT, 72 h; type: cell-based, human; settings: Homo sapiens, Jurkat; 72 h, MTT
How it was run: as §1

[5] = test system: NB4; assay: Leukemia cell growth inhibition, MTT, 72 h; type: cell-based, human; settings: Homo sapiens, NB-4; 72 h, MTT
How it was run: as §1

[6] = test system: RPMI 8226; assay: Multiple myeloma cell growth inhibition, MTT, 72 h; type: cell-based; settings: Homo sapiens
How it was run: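 Growth inhibition by MTT after 72 h drug exposure (37 °C, 5% CO2) over a concentration range of oridonin derivatives. RPMI 8226 cells plated at 6000 per well and dosed the following day.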

[7] = test system: CNE; assay: Solid tumor cell growth inhibition, MTT, 72 h; type: cell-based, human; settings: Homo sapiens, CNE; 72 h, MTT
How it was run: (§2)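 Viable cell concentration served as the readout. Cells (6000 per well) grown in DMEM High Glucose containing 10% FBS received the derivatives at several concentrations following an initial day of culture at 37° C, 5% CO2.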

[8] = test system: Hela; assay: Solid tumor cell growth inhibition, MTT, 72 h; type: cell-based, human; settings: Homo sapiens, HeLa; 72 h, MTT
How it was run: as §2

[9] = test system: Hep-2; assay: Solid tumor cell growth inhibition, MTT, 72 h; type: cell-based, human; settings: Homo sapiens, HEp-2; 72 h, MTT
How it was run: as §2

[10] = test system: MGC-803; assay: Solid tumor cell growth inhibition, MTT, 72 h; type: cell-based, human; settings: Homo sapiens, MGC-803; 72 h, MTT
How it was run: as §2

[11] = test system: A549; assay: Solid tumor cell growth inhibition, MTT, 72 h; type: cell-based; settings: Homo sapiens
How it was run: as §2

[12] = test system: Becap-37; assay: Solid tumor cell growth inhibition, MTT, 72 h; type: cell-based; settings: Homo sapiens
How it was run: as §2

[13] = test system: CaEs-17; assay: Solid tumor cell growth inhibition, MTT, 72 h; type: cell-based; settings: Homo sapiens, CaEs17
How it was run: as §2

[14] = test system: Hep G2; assay: Solid tumor cell growth inhibition, MTT, 72 h; type: cell-based; settings: Homo sapiens, HepG2
How it was run: as §2

[15] = test system: MG-63; assay: Solid tumor cell growth inhibition, MTT, 72 h; type: cell-based; settings: Homo sapiens
How it was run: as §2

[16] = test system: PANC-1; assay: Solid tumor cell growth inhibition, MTT, 72 h; type: cell-based; settings: Homo sapiens
How it was run: as §2

[17] = test system: PC-3; assay: Solid tumor cell growth inhibition, MTT, 72 h; type: cell-based; settings: Homo sapiens
How it was run: as §2

[18] = test system: RKO; assay: Solid tumor cell growth inhibition, MTT, 72 h; type: cell-based; settings: Homo sapiens
How it was run: as §2

[19] = test system: SK-OV-3; assay: Solid tumor cell growth inhibition, MTT, 72 h; type: cell-based; settings: Homo sapiens, SK-OV-3, 72 h, MTT; for IC50: read-out: IC50 SK-OV-3; for IC90: read-out: IC90 SK-OV-3
How it was run: as §2

[20] = test system: U87-MG; assay: Solid tumor cell growth inhibition, MTT, 72 h; type: cell-based; settings: Homo sapiens, U-87 MG
How it was run: as §2

Structure (SMILES): C=C1C(=O)[C@]23[C@H](OC(=O)C4CCN(S(=O)(=O)CC)CC4)[C@H]1CC[C@H]2[C@@]12CO[C@@]3(O)[C@@H](O)[C@@H]1C(C)(C)CCC2=O [BS-OR-038]
- IC50 [1]: 1.43 µg/mL (≈ 2.53 µM)
- IC90 [1]: 3.92 µg/mL (≈ 6.93 µM)
- IC50 [2]: 1.1 µg/mL (≈ 1.94 µM)
- IC90 [2]: 3.95 µg/mL (≈ 6.98 µM)
- IC50 [3]: 1.42 µg/mL (≈ 2.51 µM)
- IC90 [3]: 3.01 µg/mL (≈ 5.32 µM)
- IC50 [4]: 1.36 µg/mL (≈ 2.4 µM)
- IC90 [4]: 5.91 µg/mL (≈ 10.4 µM)
- IC50 [5]: 0.44 µg/mL (≈ 0.778 µM)
- IC90 [5]: 2.63 µg/mL (≈ 4.65 µM)
- IC50 [6]: 0.97 µg/mL (≈ 1.71 µM)
- IC90 [6]: 3.58 µg/mL (≈ 6.33 µM)
- IC50 [7]: 3.29 µg/mL (≈ 5.82 µM)
- IC90 [7]: 10.9 µg/mL (≈ 19.2 µM)
- IC50 [8]: 3.01 µg/mL (≈ 5.32 µM)
- IC90 [8]: 6.16 µg/mL (≈ 10.9 µM)
- IC50 [9]: 4.34 µg/mL (≈ 7.67 µM)
- IC90 [9]: 13.9 µg/mL (≈ 24.6 µM)
- IC50 [10]: 3.36 µg/mL (≈ 5.94 µM)
- IC90 [10]: 9.55 µg/mL (≈ 16.9 µM)
- IC50 [11]: 6.1 µg/mL (≈ 10.8 µM)
- IC90 [11]: 10.2 µg/mL (≈ 18 µM)
- IC50 [12]: 3.04 µg/mL (≈ 5.37 µM)
- IC90 [12]: 7.59 µg/mL (≈ 13.4 µM)
- IC50 [13]: 2.18 µg/mL (≈ 3.85 µM)
- IC90 [13]: 7.64 µg/mL (≈ 13.5 µM)
- IC50 [14]: 3.37 µg/mL (≈ 5.96 µM)
- IC90 [14]: 13.2 µg/mL (≈ 23.3 µM)
- IC50 [15]: 0.95 µg/mL (≈ 1.68 µM)
- IC90 [15]: 4.89 µg/mL (≈ 8.64 µM)
- IC50 [16]: 4.7 µg/mL (≈ 8.31 µM)
- IC90 [16]: 11.4 µg/mL (≈ 20.1 µM)
- IC50 [17]: 5.3 µg/mL (≈ 9.37 µM)
- IC90 [17]: 11.6 µg/mL (≈ 20.5 µM)
- IC50 [18]: 1.01 µg/mL (≈ 1.79 µM)
- IC90 [18]: 1.93 µg/mL (≈ 3.41 µM)
- IC50 [19]: 5.3 µg/mL (≈ 9.37 µM)
- IC90 [19]: 11.6 µg/mL (≈ 20.5 µM)
- IC50 [20]: 1.98 µg/mL (≈ 3.5 µM)
- IC90 [20]: 6.78 µg/mL (≈ 12 µM)

Structure (SMILES): C=C1C(=O)[C@]23[C@H](OC(=O)C4CCC(NC(=O)c5ccccn5)CC4)[C@H]1CC[C@H]2[C@@]12CO[C@@]3(O)[C@@H](O)[C@@H]1C(C)(C)CCC2=O (some centres unmarked) [BS-OR-083]
- IC50 [1]: 0.58 µg/mL (≈ 0.979 µM)
- IC90 [1]: 1.94 µg/mL (≈ 3.27 µM)
- IC50 [2]: 1.09 µg/mL (≈ 1.84 µM)
- IC90 [2]: 2.59 µg/mL (≈ 4.37 µM)
- IC50 [3]: 0.56 µg/mL (≈ 0.945 µM)
- IC90 [3]: 1.54 µg/mL (≈ 2.6 µM)
- IC50 [4]: 0.89 µg/mL (≈ 1.5 µM)
- IC90 [4]: 4.13 µg/mL (≈ 6.97 µM)
- IC50 [5]: 0.31 µg/mL (≈ 0.523 µM)
- IC90 [5]: 0.99 µg/mL (≈ 1.67 µM)
- IC50 [6]: 0.85 µg/mL (≈ 1.43 µM)
- IC90 [6]: 2.92 µg/mL (≈ 4.93 µM)
- IC50 [7]: 1.52 µg/mL (≈ 2.56 µM)
- IC90 [7]: 4.42 µg/mL (≈ 7.46 µM)
- IC50 [8]: 1.92 µg/mL (≈ 3.24 µM)
- IC90 [8]: 4.95 µg/mL (≈ 8.35 µM)
- IC50 [9]: 3.13 µg/mL (≈ 5.28 µM)
- IC90 [9]: 15.5 µg/mL (≈ 26.2 µM)
- IC50 [10]: 1.26 µg/mL (≈ 2.13 µM)
- IC90 [10]: 5.57 µg/mL (≈ 9.4 µM)
- IC50 [11]: 5.07 µg/mL (≈ 8.55 µM)
- IC90 [11]: 11.3 µg/mL (≈ 19.1 µM)
- IC50 [12]: 2.21 µg/mL (≈ 3.73 µM)
- IC90 [12]: 6.5 µg/mL (≈ 11 µM)
- IC50 [13]: 1.71 µg/mL (≈ 2.89 µM)
- IC90 [13]: 10.2 µg/mL (≈ 17.2 µM)
- IC50 [14]: 2.83 µg/mL (≈ 4.77 µM)
- IC90 [14]: 11.9 µg/mL (≈ 20.1 µM)
- IC50 [15]: 0.76 µg/mL (≈ 1.28 µM)
- IC90 [15]: 1.7 µg/mL (≈ 2.87 µM)
- IC50 [16]: 3.14 µg/mL (≈ 5.3 µM)
- IC90 [16]: 9.16 µg/mL (≈ 15.5 µM)
- IC50 [17]: 3.16 µg/mL (≈ 5.33 µM)
- IC90 [17]: 6.8 µg/mL (≈ 11.5 µM)
- IC50 [18]: 0.68 µg/mL (≈ 1.15 µM)
- IC90 [18]: 1.68 µg/mL (≈ 2.83 µM)
- IC50 [19]: 3.16 µg/mL (≈ 5.33 µM)
- IC90 [19]: 6.8 µg/mL (≈ 11.5 µM)
- IC50 [20]: 1.29 µg/mL (≈ 2.18 µM)
- IC90 [20]: 4.61 µg/mL (≈ 7.78 µM)
